The compounds below were run against mGluR5 (Homo sapiens, UniProt P41594) (assay: mGluR5 positive allosteric modulator (PAM) functional assay).
Type: cell-based

Sequence of mGluR5 (P41594 21-1212): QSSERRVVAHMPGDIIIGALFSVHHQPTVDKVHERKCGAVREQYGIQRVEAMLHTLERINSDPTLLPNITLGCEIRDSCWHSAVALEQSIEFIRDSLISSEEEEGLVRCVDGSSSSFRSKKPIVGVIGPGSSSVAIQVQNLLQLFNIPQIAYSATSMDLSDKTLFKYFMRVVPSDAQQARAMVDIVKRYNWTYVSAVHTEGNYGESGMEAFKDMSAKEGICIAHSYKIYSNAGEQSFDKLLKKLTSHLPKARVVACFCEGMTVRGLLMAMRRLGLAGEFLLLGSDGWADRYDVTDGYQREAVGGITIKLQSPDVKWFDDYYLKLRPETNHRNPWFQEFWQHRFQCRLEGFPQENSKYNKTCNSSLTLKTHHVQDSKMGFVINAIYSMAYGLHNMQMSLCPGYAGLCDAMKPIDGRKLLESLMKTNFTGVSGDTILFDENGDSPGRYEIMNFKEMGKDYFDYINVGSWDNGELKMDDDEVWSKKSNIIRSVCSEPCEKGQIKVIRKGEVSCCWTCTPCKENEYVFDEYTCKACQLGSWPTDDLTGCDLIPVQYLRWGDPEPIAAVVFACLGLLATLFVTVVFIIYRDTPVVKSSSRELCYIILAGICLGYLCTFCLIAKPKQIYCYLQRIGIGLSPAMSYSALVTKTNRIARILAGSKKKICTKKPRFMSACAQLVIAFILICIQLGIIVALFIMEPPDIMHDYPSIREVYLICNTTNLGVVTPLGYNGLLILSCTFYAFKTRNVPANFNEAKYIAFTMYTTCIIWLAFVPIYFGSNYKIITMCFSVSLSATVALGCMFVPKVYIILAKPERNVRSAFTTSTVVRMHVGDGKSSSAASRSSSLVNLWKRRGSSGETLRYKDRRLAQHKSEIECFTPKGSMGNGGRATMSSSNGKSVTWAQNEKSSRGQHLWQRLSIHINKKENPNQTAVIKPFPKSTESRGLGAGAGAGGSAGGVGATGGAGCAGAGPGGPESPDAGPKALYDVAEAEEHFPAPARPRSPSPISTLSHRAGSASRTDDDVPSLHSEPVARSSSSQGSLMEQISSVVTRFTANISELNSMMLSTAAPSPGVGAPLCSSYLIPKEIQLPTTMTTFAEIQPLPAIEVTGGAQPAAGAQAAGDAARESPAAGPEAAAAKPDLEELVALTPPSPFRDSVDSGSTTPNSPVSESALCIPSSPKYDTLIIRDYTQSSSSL

SMILES	EC50 [nM]
CC[C@H](C)c1nc(-c2ccc(C#Cc3cccc(F)c3)cc2)no1 (single isomer, unassigned) [Compound 30]	300 to 1000
CC[C@@H](C)c1nc(-c2ccc(C#Cc3cccc(F)c3)cc2)no1 (single isomer, unassigned) [Compound 31]	300 to 1000
Fc1cccc(C#Cc2ccc(-c3nnc(C4CCCC4)o3)cc2)c1 [Compound 1, 2-cyclopentyl-5-(4-((3-fluorophenyl)ethynyl)phenyl)-1,3,4-oxadiazole]	300 to 1000
CCC(C)c1nnc(-c2ccc(C#Cc3cccc(F)c3)cc2)o1 (stereo not shown) [Compound 2, 2-(sec-butyl)-5-(4-((3-fluorophenyl)ethynyl)phenyl)-1,3,4-oxadiazole]	100 to 300
CCC(CC)c1nnc(-c2ccc(C#Cc3ccncc3)cc2)o1 [Compound 3, 2-(pentan-3-yl)-5-(4-(pyridin-4-ylethynyl)phenyl)-1,3,4-oxadiazole]	30 to 100
CCC(CC)c1nnc(-c2ccc(C#Cc3cccc(F)c3)cc2)o1 [Compound 4, 2-(4-((3-fluorophenyl)ethynyl)phenyl)-5-(pentan-3-yl)-1,3,4-oxadiazole]	30 to 100
CC(c1nnc(-c2ccc(C#Cc3ccccn3)cn2)n1C)N1CCCC1 (stereo not shown) [Compound 10, 2-(4-methyl-5-(1-(pyrrolidin-1-yl)ethyl)-4H-1,2,4-triazol-3-yl)-5-(pyridin-2-ylethynyl)pyridine]	100 to 300
CC(C)(C)c1noc(-c2ccc(C#Cc3cccc(F)c3)cc2)n1 [Compound 17, 3-(tert-butyl)-5-(4-((3-fluorophenyl)ethynyl)phenyl)-1,2,4-oxadiazole]	300 to 1000
CC(C)c1nc(-c2ccc(C#Cc3cccc(F)c3)cc2)no1 [Compound 24, 3-(4-((3-fluorophenyl)ethynyl)phenyl)-5-isopropyl-1,2,4-oxadiazole]	300 to 1000
CC(C)Cc1nc(-c2ccc(C#Cc3cccc(F)c3)cc2)no1 [Compound 26, 3-(4-((3-fluorophenyl)ethynyl)phenyl)-5-isobutyl-1,2,4-oxadiazole]	300 to 1000
CC(C)(C)c1nc(-c2ccc(C#Cc3cccc(F)c3)cc2)no1 [Compound 27, 5-(tert-butyl)-3-(4-((3-fluorophenyl)ethynyl)phenyl)-1,2,4-oxadiazole]	100 to 300
CCC(C)c1nc(-c2ccc(C#Cc3cccc(F)c3)cc2)no1 (stereo not shown) [Compound 29, 5-5-(sec-butyl)-3-(4-((3-fluorophenyl)ethynyl)phenyl)-1,2,4-oxadiazole]	100 to 300
Fc1cccc(C#Cc2ccc(-c3noc(C4CCCC4)n3)cc2)c1 [Compound 32, 5-cyclopentyl-3-(4-((3-fluorophenyl)ethynyl)phenyl)-1,2,4-oxadiazole]	100 to 300
CCC(CC)c1nc(-c2ccc(C#Cc3cccc(F)c3)cc2)no1 [Compound 34, 3-(4-((3-fluorophenyl)ethynyl)phenyl)-5-(pentan-3-yl)-1,2,4-oxadiazole]	100 to 300
Fc1cccc(C#Cc2ccc(-c3noc(C4CCCO4)n3)cc2)c1 (stereo not shown) [Compound 39, 3-(4-((3-fluorophenyl)ethynyl)phenyl)-5-(tetrahydrofuran-2-yl)-1,2,4-oxadiazole]	300 to 1000
COCCc1nc(-c2ccc(C#Cc3cccc(F)c3)cc2)no1 [Compound 40, 3-(4-((3-fluorophenyl)ethynyl)phenyl)-5-(2-methoxyethyl)-1,2,4-oxadiazole]	300 to 1000
CCC(OC)c1nc(-c2ccc(C#Cc3cccc(F)c3)cc2)no1 (stereo not shown) [Compound 44, 3-(4-((3-fluorophenyl)ethynyl)phenyl)-5-(1-methoxypropyl)-1,2,4-oxadiazole]	100 to 300
CN1CCCC1c1nc(-c2ccc(C#Cc3cccc(F)c3)cc2)no1 (stereo not shown) [Compound 47, 3-(4-((3-fluorophenyl)ethynyl)phenyl)-5-(1-methylpyrrolidin-2-yl)-1,2,4-oxadiazole]	100 to 300
CCN1CCCC1c1nc(-c2ccc(C#Cc3cccc(F)c3)cc2)no1 (stereo not shown) [Compound 48, 5-(1-ethylpyrrolidin-2-yl)-3-(4-((3-fluorophenyl)ethynyl)phenyl)-1,2,4-oxadiazole]	100 to 300
CC(C)N1CCCC1c1nc(-c2ccc(C#Cc3cccc(F)c3)cc2)no1 (stereo not shown) [Compound 49, 3-(4-((3-fluorophenyl)ethynyl)phenyl)-5-(1-isopropylpyrrolidin-2-yl)-1,2,4-oxadiazole]	300 to 1000
Fc1cccc(C#Cc2ccc(-c3noc(C4CCCN4C4CCC4)n3)cc2)c1 (stereo not shown) [Compound 50, 5-(1-cyclobutylpyrrolidin-2-yl)-3-(4-((3-fluorophenyl)ethynyl)phenyl)-1,2,4-oxadiazole]	300 to 1000
CN1CCCC1(C)c1nc(-c2ccc(C#Cc3cccc(F)c3)cn2)no1 (stereo not shown) [Compound 51, 5-(1,2-dimethylpyrrolidin-2-yl)-3-(5-((3-fluorophenyl)ethynyl)pyridin-2-yl)-1,2,4-oxadiazole]	≤ 30
CC(c1nc(-c2ccc(C#Cc3cccc(F)c3)cc2)no1)N1CCC1 (stereo not shown) [Compound 52, 5-(1-(azetidin-1-yl)ethyl)-3-(4-((3-fluorophenyl)ethynyl)phenyl)-1,2,4-oxadiazole]	300 to 1000
CC(c1nc(-c2ccc(C#Cc3cccc(F)c3)cc2)no1)N1CCCC1 (stereo not shown) [Compound 53, 3-(4-((3-fluorophenyl)ethynyl)phenyl)-5-(1-(pyrrolidin-1-yl)ethyl)-1,2,4-oxadiazole]	300 to 1000

The remaining lines, values ahead:

EC50 [nM]	SMILES
100 to 300	CC[C@H](C)c1nc(-c2ccc(C#Cc3ccncc3)cc2)no1 (single isomer, unassigned) [Compound 72]
30 to 100	CC[C@@H](C)c1nc(-c2ccc(C#Cc3ccncc3)cc2)no1 (single isomer, unassigned) [Compound 73]
100 to 300	Fc1cccc(C#Cc2ccc(-c3noc(C4CCCN4)n3)nc2)c1 (stereo in doubt) [Compound 120, (R)-3-(5-((3-fluorophenyl)ethynyl)pyridin-2-yl)-5-(pyrrolidin-2-yl)-1,2,4-oxadiazole]
300 to 1000	Fc1cccc(C#Cc2ccc(-c3noc(C4CCCN4)n3)nc2)c1 (stereo in doubt) [Compound 121, (S)-3-(5-((3-fluorophenyl)ethynyl)pyridin-2-yl)-5-(pyrrolidin-2-yl)-1,2,4-oxadiazole]
300 to 1000	CC(c1nc(-c2ccc(C#Cc3cccc(F)c3)cc2)no1)N(C)C1CC1 (stereo not shown) [Compound 54, N-(1-(3-(4-((3-fluorophenyl)ethynyl)phenyl)-1,2,4-oxadiazol-5-yl)ethyl)-N-methylcyclopropanamine]
100 to 300	COC(C)c1nc(-c2ccc(C#Cc3cccc(F)c3)cc2)no1 (stereo not shown) [Compound 58, 3-(4-((3-fluorophenyl)ethynyl)phenyl)-5-(1-methoxyethyl)-1,2,4-oxadiazole]
300 to 1000	CCN(C)c1nc(-c2ccc(C#Cc3cccc(F)c3)cc2)no1 [Compound 61, N-ethyl-3-(4-((3-fluorophenyl)ethynyl)phenyl)-N-methyl-1,2,4-oxadiazol-5-amine]
100 to 300	CC(C)(C)c1nc(-c2ccc(C#Cc3ccc(F)cc3)cc2)no1 [Compound 66, 5-(tert-butyl)-3-(4-((4-fluorophenyl)ethynyl)phenyl)-1,2,4-oxadiazole]
≤ 30	CCC(C)c1nc(-c2ccc(C#Cc3ccccn3)cc2)no1 (stereo not shown) [Compound 67]
≤ 30	CN1CCCC1c1nc(-c2ccc(C#Cc3ccccn3)cc2)no1 (stereo not shown) [Compound 70, 5-(1-methylpyrrolidin-2-yl)-3-(4-(pyridin-2-ylethynyl)phenyl)-1,2,4-oxadiazole]

Reference: patent publication US10533000B2, “Metabotrophic glutamate receptor 5 modulators and methods of use thereof” (Sunovion Pharmaceuticals, Inc., priority 2011, dated 2020)
